Values of other authors as cited in patent US8153594B2, “Tacrolimus standard and methods of using same” (Siemens Healthcare Diagnostics Inc., priority 2006, dated 2012).

Solubility in water: insoluble in water
SMILES: C=CC[C@@H]1/C=C(\C)C[C@H](C)C[C@H](OC)[C@H]2O[C@@](O)(C(=O)C(=O)N3CCCC[C@H]3C(=O)O[C@H](/C(C)=C/[C@@H]3CC[C@@H](O)[C@H](OC)C3)[C@H](C)[C@@H](O)CC1=O)[C@H](C)C[C@@H]2OC [tacrolimus, Tacrolimus]
